Usually Emax stands for the maximal effect, on the per cent scale that the assay sets. As usually defined, the EC50 is the concentration needed to bring the measured effect to its halfway point. As a reminder, the Ki is the dissociation constant of the complex between target and ligand, obtained from inhibition or displacement.

SMILES strings stand for the structures.

Assay [1] deals with T1, 5-hydroxytryptamine receptor 2A (Homo sapiens, UniProt P28223). Put plainly: Agonist activity at RLuc-fused 5-HT2A (unknown origin) expressed in HEK293T cells co-transfected with mVenus-fused beta arrestin-2/GRK2 assessed as beta arrestin-2 recruitment at 0.1 to 10 uM incubated for 30 mins using coelenterazine h as a substrate by BRET assay relative to control. The format is functional, cell-based. The settings on record: dose 0.1-10 µM. For orientation: Arrestin recruitment assays detect the binding of arrestin to an activated receptor.
T1 sequence (P28223 whole entry, the tested form may be a part): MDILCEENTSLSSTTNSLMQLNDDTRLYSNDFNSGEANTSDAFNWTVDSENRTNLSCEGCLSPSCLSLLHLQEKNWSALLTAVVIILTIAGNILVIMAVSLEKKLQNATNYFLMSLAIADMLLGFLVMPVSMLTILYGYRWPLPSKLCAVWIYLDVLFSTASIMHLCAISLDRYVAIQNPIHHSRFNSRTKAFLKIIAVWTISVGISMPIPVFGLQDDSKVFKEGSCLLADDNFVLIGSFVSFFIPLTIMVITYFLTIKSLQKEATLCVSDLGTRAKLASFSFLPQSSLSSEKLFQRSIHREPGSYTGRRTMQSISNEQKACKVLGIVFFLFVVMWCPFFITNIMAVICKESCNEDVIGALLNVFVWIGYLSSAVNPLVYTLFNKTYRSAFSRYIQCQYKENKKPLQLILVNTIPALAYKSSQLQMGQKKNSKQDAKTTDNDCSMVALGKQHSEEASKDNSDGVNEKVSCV

The target of assay [2] is T1, 5-hydroxytryptamine receptor 2A. Nature of the assay: Agonist activity at 5-HT2A (unknown origin) expressed in HEK293T cells co-transfected with RLuc-fused Galphaq/GFP2/Gy9/Gbeta3 assessed as Gaq hetero trimeric G protein activation at 0.1 to 10 uM incubated for 30 mins using coelenterazine 400a as a substrate by BRET assay relative to control. In kind it is functional, cell-based. The settings on record: filed as agonist, dose 0.1-10 µM. In general terms: BRET reads energy transfer from a luciferase to a nearby fluorophore.

For assay [3] the target is unchanged. Put plainly: Agonist activity at RLuc-fused 5-HT2A (unknown origin) expressed in HEK293T cells co-transfected with mVenus-fused beta arrestin-2/GRK2 assessed as beta arrestin-2 recruitment incubated for 30 mins using coelenterazine h as a substrate by BRET assay. The format is functional, cell-based.
Assay [4] shares this target. Put plainly: Displacement of [3H]-LSD form 5-HT2A (unknown origin) expressed in Flp-In-T-Rex-293 membrane by Microbeta scintillation counting analysis. In kind it is cell membranes. Background: Displacement assays read how much labelled ligand stays bound in the presence of the test substance.
The target is the same in assay [5]. Nature of the assay: Agonist activity at 5-HT2A (unknown origin) expressed in HEK293T cells co-transfected with RLuc-fused Galphaq/GFP2/Gy9/Gbeta3 assessed as Gaq hetero trimeric G protein activation incubated for 30 mins using coelenterazine 400a as a substrate by BRET assay. In kind it is functional, cell-based.

Take `Cc1cccc2[nH]cc(C3=CCCNC3)c12`: the Emax came out at 42% in assay [1] (filed as agonist) and 85.7% in assay [2].

As to `C1=C(c2c[nH]c3cccc(-c4ccccc4)c23)CNCC1`, the values for the concentration for a half-maximal effect (EC50) in assay [3] and in assay [5] were 358 nM and 874 nM, respectively. The affinity in assay [4], expressed as Ki, was 14 nM. The values for the Emax in assay [1] and in assay [2] were 15.1% and 59.6%, respectively.

Turning to `Clc1ccc2[nH]nc(C3=CCCNC3)c2c1`, the Emax worked out at 97% in assay [1] (filed as agonist) and 94.8% in assay [2].

Turning to `CC(C)c1ccc2[nH]cc(C3=CCCNC3)c2c1`, the maximum response (Emax) stood at 31.4% in assay [1] and 58.8% in assay [2].

For `CN1CCC=C(c2n[nH]c3cc(F)ccc23)C1`, the Emax in assay [1] was found to be 27%; in assay [2], 47.1%.

`COc1cccc2[nH]cc(C3=CCCN(C)C3)c12`: the maximal effect (Emax) in assay [1] (filed as agonist) was determined as 47.7%; in assay [2] it was 91%.

For `COc1cccc2[nH]cc(C3=CCCNC3)c12`, the maximal effect (Emax) was 51.8% in assay [1] (filed as agonist) and 96.1% in assay [2].

For `COc1ccnc2[nH]cc(C3=CCCN(C)C3)c12`, the maximal effect (Emax) in assay [1] came to 32.2%; in assay [2], 67.1%.

As to `Fc1ccc2[nH]nc(C3=CCCNC3)c2c1`, the maximal response (Emax) is 96% in assay [1] (filed as agonist) and 88.3% in assay [2].

As to `Cc1ccnc2[nH]cc(C3=CCCN(C)C3)c12`, the maximum response (Emax) in assay [1] turned out to be 38.9%; in assay [2] it was 68.7%.

On to `COc1cccc2[nH]nc(C3=CCCNC3)c12`, for which the results for the Emax in assay [1] (filed as agonist) and in assay [2] were 75.9% and 81.7%, respectively.

As to `CN1CCC=C(c2n[nH]c3c(Cl)ccc(F)c23)C1`, the Emax in assay [1] (filed as agonist) amounted to 50.9%; in assay [2], 95.4%.

Regarding `CN1CCC=C(c2n[nH]c3c(Cl)cc(F)cc23)C1`, the maximal effect (Emax) in assay [1] (filed as agonist) stood at 88.5%; in assay [2] it was 91.4%.

`CN1CCC=C(c2c[nH]c3c(Cl)c(F)ccc23)C1`: the Emax in assay [1] (filed as agonist) turned out to be 56.5%; in assay [2], 89.2%.

For the molecule `Clc1ccc2[nH]cc(C3=CCCNC3)c2c1`, the maximal response (Emax) in assay [1] (filed as agonist) is 77.3%; in assay [2], 102%.

In the case of `Fc1ccc(Cl)c2[nH]nc(C3=CCCNC3)c12`, the Emax in assay [1] (filed as agonist) was 72.7%; in assay [2], 106%.

With `Fc1ccc2c(C3=CCCNC3)n[nH]c2c1`, the maximum response (Emax) in assay [1] (filed as agonist) was determined as 59.4%; in assay [2], 79.4%.
